Tested on: T1, NADPH-dependent phenol hydroxylase
T1 construct: native enzyme purified from cytosol of phenol-grown yeast (DEAE-Sepharose, PEG 6000, Sepharose 4B), close to homogeneity
Experiment: HPLC of phenol consumption, Michaelis-Menten kinetics
Type: biochemical, Candida tropicalis
Conditions: with NADPH; same Km from catechol formation; read-out: apparent Km

## Oc1ccccc1 [phenol]
  Km: 450 µM

Source: article PMC2994021, “Isolation of cytoplasmic NADPH-dependent phenol hydroxylase and catechol-1,2-dioxygenase from Candida tropicalis yeast” (Interdisciplinary Toxicology, 2010)
